Laboratory results published in patent publication US10793580B2, “Substituted pyrazoloazepin-8-ones and their use as phosphodiesterase inhibitors” (LEO Pharma A/S, priority 2016, dated 2020).
Where two headings read alike, the source gives them in different places.

Biological target: human PDE4D catalytic domain (Homo sapiens (Human), UniProt Q08499)
Experiment: PDE4 Assay (TR-FRET, FAM-cAMP cleavage)
Type: biochemical
Settings: read-out: PDE4 IC50 range
In short: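 Readout is Tb-to-FAM time-resolved FRET after nanoparticle capture of AMP, the product of cleaving a cAMP/FAM-cAMP mixture by PDE4D catalytic domain (S380-L740) in the presence of titrated compound. Values are IC50 ranges in nM: concentration halving substrate cleavage relative to controls.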

[1] = human PDE4D catalytic domain (UniProt Q08499 [S380-L740]), 50% inhibition of substrate cleavage

Chain of human PDE4D catalytic domain (Q08499 380-740): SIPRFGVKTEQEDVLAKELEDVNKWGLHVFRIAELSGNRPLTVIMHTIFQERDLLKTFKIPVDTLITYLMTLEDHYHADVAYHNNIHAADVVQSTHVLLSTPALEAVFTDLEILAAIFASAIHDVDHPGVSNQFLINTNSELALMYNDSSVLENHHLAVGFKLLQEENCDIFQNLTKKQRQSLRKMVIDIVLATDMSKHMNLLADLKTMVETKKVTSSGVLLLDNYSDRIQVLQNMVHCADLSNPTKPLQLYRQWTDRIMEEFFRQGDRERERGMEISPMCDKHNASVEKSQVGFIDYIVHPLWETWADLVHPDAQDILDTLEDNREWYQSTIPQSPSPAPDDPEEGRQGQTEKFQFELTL

Structure (SMILES)	IC50 [1]	IC50 (Table 17, Examples 297-316)
CCn1nc(CCCOC(=O)c2ccc(F)c(F)c2)c2c1C(=O)NCC1(CCOCC1)C2 [Example 23, 3-(1-ethyl-8-oxo-spiro[6,7-dihydro-4H-pyrazolo[3,4-c]azepine-5,4′-tetrahydropyran]-3-yl)propyl 3,4-difluorobenzoate]	< 100 nM	
CCn1nc(C[C@@H](C)COC(=O)c2cccc(C(N)=O)c2)c2c1C(=O)NCC1(CCOCC1)C2 [Example 178, [(2R)-3-(1-ethyl-8-oxo-spiro[6,7-dihydro-4H-pyrazolo[3,4-c]azepine-5,4′-tetrahydropyran]-3-yl)-2-methyl-propyl] 3-carbamoylbenzoate]	< 100 nM	
CCn1nc(CCCOC(=O)c2cccc(Cl)c2F)c2c1C(=O)NCC1(CCOCC1)C2 [Example 50, 3-(1-ethyl-8-oxo-spiro[6,7-dihydro-4H-pyrazolo[3,4-c]azepine-5,4′-tetrahydropyran]-3-yl)propyl 3-chloro-2-fluoro-benzoate]	< 100 nM	
CCc1nc(C(=O)OCCCc2nn(CC)c3c2CC2(CCOCC2)CNC3=O)co1 [Example 251, 3-(1-ethyl-8-oxo-spiro[6,7-dihydro-4H-pyrazolo[3,4-c]azepine-5,4′-tetrahydropyran]-3-yl)propyl 2-ethyloxazole-4-carboxylate]	< 100 nM	
CCn1nc(C[C@@H](C)COC(=O)c2cccc(C(=O)N(C)C)c2)c2c1C(=O)NCC1(CCOCC1)C2 [Example 180, [(2R)-3-(1-ethyl-8-oxo-spiro[6,7-dihydro-4H-pyrazolo[3,4-c]azepine-5,4′-tetrahydropyran]-3-yl)-2-methyl-propyl] 3-(di-methylcarbamoyl)benzoate]	< 100 nM	
CCn1nc(CC(C)(C)COC(=O)c2ccc(C(=O)NC)cc2)c2c1C(=O)NCC1(CCOCC1)C2 [Example 219, [3-(1-ethyl-8-oxo-spiro[6,7-dihydro-4H-pyrazolo[3,4-c]azepine-5,4′-tetrahydropyran]-3-yl)-2,2-dimethyl-propyl] 4-(methylcarbamoyl)benzoate]	< 100 nM	
CCn1nc(CCCOC(=O)c2ccc(C)cc2F)c2c1C(=O)NCC1(CCOCC1)C2 [Example 18, 3-(1-ethyl-8-oxo-spiro[6,7-dihydro-4H-pyrazolo[3,4-c]azepine-5,4′-tetrahydropyran]-3-yl)propyl 2-fluoro-4-methyl-benzoate]	< 100 nM	
CCn1nc(CCCCOC(=O)C2CCOC2)c2c1C(=O)NCC1(CCOCC1)C2 (stereo not shown) [Example 265, 4-(1-ethyl-8-oxo-spiro[6,7-dihydro-4H-pyrazolo[3,4-c]azepine-5,4′-tetrahydropyran]-3-yl)butyl tetrahydrofuran-3-carboxylate]	< 100 nM	
CCn1nc(CCCOC(=O)c2ccc(OC)c(C(F)(F)F)c2)c2c1C(=O)NCC1(CCOCC1)C2 [Example 79, 3-(1-ethyl-8-oxo-spiro[6,7-dihydro-4H-pyrazolo[3,4-c]azepine-5,4′-tetrahydro-pyran]-3-yl)propyl 4-methoxy-3-(trifluoromethyl)benzoate]	< 100 nM	
CCn1nc(CCCOC(=O)c2cccc(C(=O)N3CCN(C)CC3)c2)c2c1C(=O)NCC1(CCOCC1)C2 [Example 119, 3-(1-ethyl-8-oxo-spiro[6,7-dihydro-4H-pyrazolo[3,4-c]azepine-5,4′-tetrahydropyran]-3-yl)propyl 3-(4-methylpiperazine-1-carbonyl)benzoate]	< 100 nM	
CCn1nc(CCCCOC(=O)C(C)C)c2c1C(=O)NCC1(CCOCC1)C2 [Example 121, 4-(1-ethyl-8-oxo-spiro[6,7-dihydro-4H-pyrazolo[3,4-c]azepine-5,4′-tetrahydropyran]-3-yl)butyl 2-methyl-propanoate]	< 100 nM	
CCn1nc(CCCOC(=O)c2ccc(S(=O)(=O)NC)cc2)c2c1C(=O)NCC1(CCOCC1)C2 [Example 1, 3-(1-Ethyl-8-oxo-spiro[6,7-dihydro-4H-pyrazolo[3,4-c]azepine-5,4′-tetrahydropyran]-3-yl)propyl 4-(methylsulfamoyl)benzoate]	< 100 nM	
CCn1nc(CCCOC(=O)c2cccc(S(=O)(=O)CC)c2)c2c1C(=O)NCC1(CCOCC1)C2 [Example 76, 3-(1-ethyl-8-oxo-spiro[6,7-dihydro-4H-pyrazolo[3,4-c]azepine-5,4′-tetrahydro-pyran]-3-yl)propyl 3-ethylsulfonylbenzoate]	< 100 nM	
CCn1nc(C[C@@H](C)COC(=O)c2ccccc2F)c2c1C(=O)NCC1(CCOCC1)C2 [Example 144, [(2R)-3-(1-ethyl-8-oxo-spiro[6,7-dihydro-4H-pyrazolo[3,4-c]azepine-5,4′-tetrahydropyran]-3-yl)-2-methyl-propyl] 2-fluorobenzoate]	< 100 nM	
CCn1nc(CC(C)(C)COC(=O)c2ccc(S(=O)(=O)N(C)Cc3ccccc3)cc2)c2c1C(=O)NCC1(CCOCC1)C2 [Example 214, [3-(1-ethyl-8-oxo-spiro[6,7-dihydro-4H-pyrazolo[3,4-c]azepine-5,4′-tetrahydropyran]-3-yl)-2,2-dimethyl-propyl] 4-[benzyl(methyl)sulfamoyl] benzoate]	< 100 nM	
CCn1nc(C[C@@H](C)COC(=O)c2cccc(C(=O)N3CCCC3)c2)c2c1C(=O)NCC1(CCOCC1)C2 [Example 181, [(2R)-3-(1-ethyl-8-oxo-spiro[6,7-dihydro-4H-pyrazolo[3,4-c]azepine-5,4′-tetrahydropyran]-3-yl)-2-methyl-propyl] 3-(pyrrolidine-1-carbonyl)benzoate]	< 100 nM	
CCn1nc(CCCOC(=O)c2cccc(S(=O)(=O)C(C)C)c2)c2c1C(=O)NCC1(CCOCC1)C2 [Example 92, 3-(1-ethyl-8-oxo-spiro[6,7-dihydro-4H-pyrazolo[3,4-c]azepine-5,4′-tetrahydropyran]-3-yl)propyl 3-isopropylsulfonylbenzoate]	< 100 nM	
CCn1nc(C[C@@H](C)COC(=O)c2cccc(C(=O)N3CCN(C)CC3)c2)c2c1C(=O)NCC1(CCOCC1)C2 [Example 184, [(2R)-3-(1-ethyl-8-oxo-spiro[6,7-dihydro-4H-pyrazolo[3,4-c]azepine-5,4′-tetrahydropyran]-3-yl)-2-methyl-propyl] 3-(4-methylpiperazine-1-carbonyl)benzoate]	< 100 nM	
CCn1nc(CC(C)(C)COC(=O)c2cn(C)cn2)c2c1C(=O)NCC1(CCOCC1)C2 [Example 300, [3-(1-ethyl-8-oxo-spiro[6,7-dihydro-4H-pyrazolo[3,4-c]azepine-5,4′-tetrahydropyran]-3-yl)-2,2-dimethyl-propyl] 1-methylimidazole-4-carboxylate]		< 100 nM
CCn1nc(CCCCOC(=O)c2ccc(C(C)=O)cc2)c2c1C(=O)NCC1(CCOCC1)C2 [Example 126, 4-(1-ethyl-8-oxo-spiro[6,7-dihydro-4H-pyrazolo[3,4-c]azepine-5,4′-tetrahydropyran]-3-yl)butyl 4-acetylbenzoate]	< 100 nM	
CCn1nc(CC(C)(C)COC(=O)c2cccc(S(=O)(=O)CC)c2)c2c1C(=O)NCC1(CCOCC1)C2 [Example 204, [3-(1-ethyl-8-oxo-spiro[6,7-dihydro-4H-pyrazolo[3,4-c]azepine-5,4′-tetrahydropyran]-3-yl)-2,2-dimethyl-propyl] 3-ethylsulfonylbenzoate]	< 100 nM	
CCn1nc(CCOC(=O)C2CCCC2)c2c1C(=O)NCC1(CCOCC1)C2 [Example 134, 2-(1-ethyl-8-oxo-spiro-[6,7-dihydro-4H-pyrazolo-[3,4-c]azepine-5,4′-tetra-hydropyran]-3-yl)ethyl cyclopentanecarboxylate]	< 100 nM	
